Reference: patent publication US6753348B2, “BTK inhibitors and methods for their identification and use” (Parker Hughes Institute, priority 1998, dated 2004)

How the values were obtained:
HCK = HCK (Homo sapiens, UniProt P08631); experiment: Cell-free tyrosine kinase inhibition assay HCK from transfected COS-7 cells; type: biochemical
JAK1 = JAK1 (Homo sapiens, UniProt P23458); experiment: Cell-free tyrosine kinase inhibition assay JAK1; type: biochemical
ALL-1 cells = experiment: Ceramide-induced apoptosis, MC540/PI flow cytometry; type: cell-based, human; conditions: 200 μM plus 10 μM C2-ceramide
NALM-6-UM1 cells = experiment: Fas-mediated apoptosis, DNA fragmentation; type: cell-based, human
Method: FIGS. 6A-6D: Apoptotic Responses of Human B-lineage Leukemia Cells to Fas Ligation in Relationship to BTK Expression and Function. Anti-BTK and anti-Actin dual-antibody Western blot analysis of whole cell lysates from BTK-positive NALM-6-UM1 (N6-U1) and BTK-deficient RAMOS-1 cells (FIG. 5A). Anti-Fas Western blot analysis of the same cell lysates. [B] Cells were harvested 24 hours after exposure to anti-Fas antibody at 0.1 μg/ml or 1.0 μg/ml concentrations and DNA from Triton-X-100 lysates was analyzed for fragmentation, as described by Uckun, F. M., et al. (1996) Science 273, 1096-1100; and Uckun, F. M., et al. (1995) Science 267, 886-91. […] [C.1] and [C.2] […] N6-U1 cells were harvested 24 hours after exposure to anti-Fas antibody at 0.1 μg/ml or 1.0 μg/ml concentrations and DNA from Triton-X-100 lysates was analyzed for fragmentation, as described by Uckun, F. M., et al. (1996) Science 273, 1096-1100; and Uckun, F. M., et al. (1995) Science 267, 886-91. […]
Apoptosis Assays. […] MC540 binding (as an early marker of apoptosis) and PI permeability (as a marker of advanced stage apoptosis) were simultaneously measured in DT-40 cells 24 hours after exposure to anti-Fas antibody as previously described (Uckun, F. M., et al. (1996) Science 273, 1096-1100). Whole cells were analyzed with a FACStar Plus flow cytometer (Becton Dickinson, San Jose, Calif.). […]

[1] = tested on: OVA-sensitized and challenged mice; experiment: Eosinophil infiltration in bronchoalveolar lavage of OVA challenged mice; type: in vivo, mouse; conditions: ovalbumin sensitized and challenged mice, pretreatment
Excerpt: FIG. 29: Inhibition of eosinophil infiltration in bronchoalveolar lavage of OVA challenged mice by LFM-A8. The lungs of the mice were lavaged after methacholine challenge and eosinophil numbers were counted. The results of eosinophils are expressed as percent of total cell counts. The data points represent the mean±SEM values obtained from 5-6 mice. *P<0.05 compared to vehicle-treated control, as determined by Student's t test.
Assessment of Eosinophil Infiltration. After airway responsiveness measurements, lungs were lavaged thoroughly with 1 ml saline. The lavage fluid was centrifuged and the supernatant was removed. The cell pellet was resuspended in saline containing 0.1% BSA to give a final cell concentration of 0.1×10^6/ml. Cytospin smears made from the cell suspension were stained with Wright-Giemsa and the number of eosinophils were counted.

[2] = concentrations as high as 100 μg/ml (~278 μM)

Chain of JAK1 (P23458 whole entry, species assumed): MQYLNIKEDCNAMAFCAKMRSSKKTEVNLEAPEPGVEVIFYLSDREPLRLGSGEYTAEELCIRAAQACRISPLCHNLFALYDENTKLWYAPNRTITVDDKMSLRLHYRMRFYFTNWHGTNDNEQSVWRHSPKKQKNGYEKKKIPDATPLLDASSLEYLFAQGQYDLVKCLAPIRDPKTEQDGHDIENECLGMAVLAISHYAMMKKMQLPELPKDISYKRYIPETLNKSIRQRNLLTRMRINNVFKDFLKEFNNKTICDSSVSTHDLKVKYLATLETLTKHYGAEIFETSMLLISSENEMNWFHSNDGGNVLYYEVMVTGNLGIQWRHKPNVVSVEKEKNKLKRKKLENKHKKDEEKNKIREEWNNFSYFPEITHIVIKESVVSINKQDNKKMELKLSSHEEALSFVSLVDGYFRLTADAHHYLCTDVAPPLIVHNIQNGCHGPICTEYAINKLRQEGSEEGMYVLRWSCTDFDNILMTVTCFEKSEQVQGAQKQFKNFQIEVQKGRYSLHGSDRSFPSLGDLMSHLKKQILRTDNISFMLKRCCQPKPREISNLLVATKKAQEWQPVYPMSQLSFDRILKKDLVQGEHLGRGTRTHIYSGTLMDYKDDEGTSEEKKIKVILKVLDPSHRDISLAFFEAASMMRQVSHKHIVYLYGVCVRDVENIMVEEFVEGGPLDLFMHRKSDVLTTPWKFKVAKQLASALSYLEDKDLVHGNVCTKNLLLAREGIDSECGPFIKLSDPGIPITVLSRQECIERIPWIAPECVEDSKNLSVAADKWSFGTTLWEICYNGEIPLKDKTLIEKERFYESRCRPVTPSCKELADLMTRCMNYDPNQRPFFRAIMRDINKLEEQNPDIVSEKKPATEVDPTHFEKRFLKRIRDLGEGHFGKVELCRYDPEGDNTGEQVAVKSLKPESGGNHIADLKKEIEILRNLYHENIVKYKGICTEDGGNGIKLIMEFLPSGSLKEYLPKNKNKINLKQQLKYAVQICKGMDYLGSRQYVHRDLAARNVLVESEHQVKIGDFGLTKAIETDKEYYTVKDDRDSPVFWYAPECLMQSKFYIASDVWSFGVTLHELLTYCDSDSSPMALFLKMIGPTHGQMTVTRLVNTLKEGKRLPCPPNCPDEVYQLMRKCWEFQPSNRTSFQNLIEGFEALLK
Chain of HCK (P08631 whole entry, species assumed): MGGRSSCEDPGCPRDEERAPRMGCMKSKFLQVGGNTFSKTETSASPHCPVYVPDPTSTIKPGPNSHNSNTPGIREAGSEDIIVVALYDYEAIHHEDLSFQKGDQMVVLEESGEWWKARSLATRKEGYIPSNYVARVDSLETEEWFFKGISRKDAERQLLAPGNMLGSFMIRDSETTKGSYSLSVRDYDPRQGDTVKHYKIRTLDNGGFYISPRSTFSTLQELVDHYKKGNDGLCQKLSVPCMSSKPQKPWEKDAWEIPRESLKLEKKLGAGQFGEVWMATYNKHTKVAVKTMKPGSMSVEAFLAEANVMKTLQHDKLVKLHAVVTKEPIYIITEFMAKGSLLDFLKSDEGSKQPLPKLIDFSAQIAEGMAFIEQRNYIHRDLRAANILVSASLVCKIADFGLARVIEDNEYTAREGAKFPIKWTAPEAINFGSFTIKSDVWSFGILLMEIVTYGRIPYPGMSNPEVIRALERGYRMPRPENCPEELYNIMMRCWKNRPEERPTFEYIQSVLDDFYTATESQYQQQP

Row | Structure (SMILES) | IC50 (HCK) [µM] | effect on enzymatic activity of HCK (HCK; [2]) | IC50 (JAK1) [µM] | effect on enzymatic activity of JAK1 (JAK1; [2]) | chemosensitivity to ceramide-induced apoptosis (ALL-1 cells) | sensitivity to Fas-mediated apoptosis after pretreatment (NALM-6-UM1 cells; 10 μM x 4 hours, then anti-Fas 0.1 or 1.0 μg/ml, 24 hours) | apoptosis by compound alone (NALM-6-UM1 cells; 10 μM, 4 hour treatment) | reduction of numbers of eosinophils in BAL fluid [1] [%]
1 | C/C(O)=C(\C#N)C(=O)Nc1cc(Br)ccc1Br [LFM-A13, α-Cyano-β-hydroxy-β-methyl-N-(2,5-dibromophenyl)-propenamide] | > 278 | did not affect the enzymatic activity | > 278 | did not affect the enzymatic activity | significantly enhanced the chemosensitivity | sensitive to Fas-mediated apoptosis | did not induce apoptosis | –
2 | CC(O)=C(C#N)C(=O)Nc1cccc(C(F)(F)F)c1 [LFM-A8, α-Cyano-β-hydroxy-β-methyl-N-[3-(trifluoromethyl)phenyl]-propenamide] | – | – | – | – | – | – | – | 80
